Reference: US8791106B2, “Fused ring pyridine compound” (Astellas Pharma Inc., priority 2010, dated 2014)

Experiments:
[1] = tested on: adjuvant-induced arthritis rat; assay: Effect of inhibition of hind paw weight distribution in adjuvant-induced arthritis rat; assay type: in vivo; details: oral, female Lewis rats, day after adjuvant, Vehicle group 0%, Normal group 100%, read-out: Inhibition rate (%) of hind paw load difference
Method: For this test, female Lewis rats (7- to 8-weeks-old) were used. 50 μL of killed Mycobacterium tuberculosis H37 Ra (manufactured by DIFCO MICROBIOLOGY) suspended in liquid paraffin at a concentration of 10 mg/mL was subcutaneously administered to the right hind footpad. On the next day, the test substance was administered orally, and after some time, the load on the left and right hind paws was measured using an Incapacitance Tester (manufactured by Linton Instruments), thereby calculating a difference in the load between left and right. The load difference of a Vehicle-administered group was regarded as an inhibition rate of 0%, and the load difference of a Normal group was regarded as an inhibition rate of 100%, thereby allowing calculation of the inhibition rate of the test substance.
In the table, Ex represents an example number of a test compound described later, and values in the parenthesis indicates a dose.

human CB2 = target: T1, human CB2 (Homo sapiens, UniProt P34972); assay: Test on inhibition of human CB2-mediated cyclic AMP (cAMP) production; assay type: cell-based; details: 30 nM test substance; forskolin 0.5 μM; human CB2-expressing CHO cells; 30 minutes at room temperature; read-out: Inh(%): inhibition rate of cAMP increase
T1 construct: expressed in transfected cells; host or cells: CHO cells
T1 sequence (P34972 whole entry): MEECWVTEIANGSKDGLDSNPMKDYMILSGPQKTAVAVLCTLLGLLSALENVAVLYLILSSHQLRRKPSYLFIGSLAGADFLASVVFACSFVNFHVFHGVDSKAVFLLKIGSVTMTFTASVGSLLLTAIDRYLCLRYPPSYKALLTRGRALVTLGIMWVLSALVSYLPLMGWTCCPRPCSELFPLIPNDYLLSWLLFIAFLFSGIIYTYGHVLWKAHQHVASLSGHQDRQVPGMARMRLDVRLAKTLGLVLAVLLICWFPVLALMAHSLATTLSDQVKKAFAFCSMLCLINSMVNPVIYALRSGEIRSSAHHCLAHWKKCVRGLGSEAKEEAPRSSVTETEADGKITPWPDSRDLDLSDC
Method: This test was performed using CHO cells caused to express human CB2 (“Molecular Pharmacology”, 1995, Vol. 48, pp 443-450).
A human CB2-expressing CHO cell (2.5×10^3/mL) suspension and an assay medium supplemented with a test substance and forskolin (final concentration of 0.5 μM) were mixed together in equal amounts, followed by incubation for 30 minutes at room temperature, and then a 0.6% Triton X-100 solution was added thereto, thereby obtaining a cell lysate. A cAMP concentration in the cell lysate was measured using a cAMP kit (manufactured by Cisbio International). The assay medium was obtained by supplementing α-MEM manufactured by Invitrogen with 0.02% CHAPS, 1 mM isobutylmethylxanthine, and 0.5 mg/mL bovine serum albumin. The cAMP concentration in a forskolin-free cell suspension was regarded as 0% of increase in cAMP, and the cAMP concentration in a forskolin-added cell suspension was regarded as a 100% increase in cAMP, thereby allowing calculation of the inhibition rate of intracellular cAMP increase in 30 nM test substance.
In the table, Ex represents the example number of a test compound described later, and Inh represents inhibition rate of cAMP increase.

SMILES	inhibition in vivo at 0.1 mg/kg [1] [%]	inhibition at 0.03 µM (human CB2) [%]	inhibition in vivo at 0.3 mg/kg [1] [%]
O=C(c1ncc(Nc2cccc(Cl)c2)c2c1CCCC2)N1CCS(=O)(=O)CC1 [Example 10]	30	73	–
O=C(c1cnc(N[C@@H]2C[C@H]3CC[C@@H]2C3)c2c1CCCC2)N1CCOCC1 [Example 11]	–	77	–
O=C(c1cnc(Nc2cccc(OC(F)(F)F)c2)c2c1CCCC2)N1CCOCC1 [Example 16]	29	87	–
O=C(c1cnc(Nc2cccc(Cl)c2)c2c1CCCC2)N1CCS(=O)(=O)CC1 [Example 30]	17	82	–
O=C(c1ncc(Nc2cccc(C(F)(F)F)c2)c2c1CCCC2)N1CCS(=O)(=O)CC1 [Example 36]	49	82	–
CC1(C)CCCC(Nc2ncc(C(=O)N3CCS(=O)(=O)CC3)c3c2CCCC3)C1 (stereo not shown) [Example 38]	–	77	–
O=C(c1cnc(Oc2cccc(C(F)(F)F)c2)c2c1CCCC2)N1CCS(=O)(=O)CC1 [Example 52]	–	96	–
O=C(c1ncc(Nc2ccc(F)c(Cl)c2)c2c1C1CCC2C1)N1CCS(=O)(=O)CC1 (stereo not shown) [Example 59]	–	93	–
O=C(c1ncc(Nc2cccc(Cl)c2)c2c1C1CCC2C1)N1CCS(=O)(=O)CC1 (stereo not shown) [Example 94-1]	–	97	–
O=C(c1ncc(Nc2cccc(Cl)c2)c2c1C1CCC2CC1)N1CCS(=O)(=O)CC1 [Example 98]	–	96	–
O=C(c1cnc(Nc2cccc(Cl)c2)c2c1C1CCC2CC1)N1CCS(=O)(=O)CC1 [Example 101]	–	99	–
O=C(c1cnc(Nc2cccc(C(F)(F)F)c2)c2c1C1CCC2CC1)N1CCS(=O)(=O)CC1 [Example 112]	–	103	–
O=C(c1cnc(Nc2cccc(Cl)c2)c2c1C1CCC2C1)N1CCS(=O)(=O)CC1 (stereo not shown) [Example 117-2]	–	100	–
O=C(c1cnc(Nc2ccc(F)c(Cl)c2)c2c1C1CCC2C1)N1CCS(=O)(=O)CC1 (stereo not shown) [Example 119-2]	–	91	49
O=C(c1cnc(Nc2cccc(OC(F)(F)F)c2)c2c1C1CCC2C1)N1CCS(=O)(=O)CC1 (stereo not shown) [Example 120-2]	–	105	34
O=C(c1ncc(Nc2cccc(OC(F)(F)F)c2)c2c1C1CCC2CC1)N1CCS(=O)(=O)CC1 [Example 125]	–	100	–
O=C(c1ncc(Nc2ccc(F)c(C(F)(F)F)c2)c2c1C1CCC2CC1)N1CCS(=O)(=O)CC1 [Example 129]	–	95	–
O=C(c1cnc(Nc2ccc(F)c(C(F)(F)F)c2)c2c1C1CCC2C1)N1CCS(=O)(=O)CC1 (stereo not shown) [Example 133-2]	–	90	39
O=C(c1cnc(Nc2ccc(F)c(F)c2)c2c1C1CCC2CC1)N1CCS(=O)(=O)CC1 [Example 138]	–	97	54
Cc1cccc(Nc2cnc(C(=O)N3CCS(=O)(=O)CC3)c3c2C2CCC3CC2)c1F [Example 164]	–	119	–
Cc1ccc(F)c(Nc2cnc(C(=O)N3CCS(=O)(=O)CC3)c3c2C2CCC3CC2)c1 [Example 165]	–	111	–
Cc1ccc(Nc2cnc(C(=O)N3CCS(=O)(=O)CC3)c3c2C2CCC3CC2)cc1Cl [Example 167]	–	115	–
O=C(c1cnc(Nc2cc(F)cc(Cl)c2)c2c1C1CCC2CC1)N1CCS(=O)(=O)CC1 [Example 179]	–	100	–
